Experimental data published in ChEMBL document CHEMBL1152546, “N-[2-chloro-9H-purin-6-yl]-N-cyclopropylglycylamino acids and derivatives: synthesis, evaluation as a class of novel analgesics, and 3D QSAR analysis” (2009).

Columns and labels:
Mus musculus [1] = experiment: Analgesic activity in ICR mouse assessed as pain threshold variation at 6.25 umol/kg, po administered as single dose measured after 60 mins by tail flick test relative to control; format: functional
Mus musculus [2] = experiment: Analgesic activity in ICR mouse assessed as pain threshold variation at 6.25 umol/kg, po administered as single dose measured after 90 mins by tail flick test relative to control; format: functional
Mus musculus [3] = experiment: Analgesic activity in ICR mouse assessed as pain threshold variation at 6.25 umol/kg, po administered as single dose measured after 120 mins by tail flick test relative to control; format: functional
Mus musculus [4] = experiment: Analgesic activity in ICR mouse assessed as pain threshold variation at 6.25 umol/kg, po administered as single dose measured after 150 mins by tail flick test relative to control; format: functional
Mus musculus [5] = experiment: Analgesic activity in ICR mouse assessed as pain threshold variation at 6.25 umol/kg, po administered as single dose measured after 180 mins by tail flick test relative to control; format: functional
Mus musculus [6] = experiment: Analgesic activity in po dosed ICR mouse assessed as pain threshold variation administered as single dose measured after 30 to 180 mins by tail flick test; format: functional, organism-based
Mus musculus [7] = experiment: Analgesic activity in ICR mouse assessed as pain threshold variation at 25 umol/kg, po administered as single dose measured after 30 mins by tail flick test relative to control; format: functional
Mus musculus [8] = experiment: Analgesic activity in ICR mouse assessed as pain threshold variation at 25 umol/kg, po administered as single dose measured after 60 mins by tail flick test relative to control; format: functional
Mus musculus [9] = experiment: Analgesic activity in ICR mouse assessed as pain threshold variation at 25 umol/kg, po administered as single dose measured after 90 mins by tail flick test relative to control; format: functional
Mus musculus [10] = experiment: Analgesic activity in ICR mouse assessed as pain threshold variation at 25 umol/kg, po administered as single dose measured after 120 mins by tail flick test relative to control; format: functional
Mus musculus [11] = experiment: Analgesic activity in ICR mouse assessed as pain threshold variation at 25 umol/kg, po administered as single dose measured after 150 mins by tail flick test relative to control; format: functional
Mus musculus [12] = experiment: Analgesic activity in ICR mouse assessed as pain threshold variation at 25 umol/kg, po administered as single dose measured after 180 mins by tail flick test relative to control; format: functional
Mus musculus [13] = experiment: Analgesic activity in ICR mouse assessed as pain threshold variation at 12.5 umol/kg, po administered as single dose measured after 30 mins by tail flick test relative to control; format: functional
Mus musculus [14] = experiment: Analgesic activity in ICR mouse assessed as pain threshold variation at 12.5 umol/kg, po administered as single dose measured after 60 mins by tail flick test relative to control; format: functional
Mus musculus [15] = experiment: Analgesic activity in ICR mouse assessed as pain threshold variation at 12.5 umol/kg, po administered as single dose measured after 90 mins by tail flick test relative to control; format: functional
Mus musculus [16] = experiment: Analgesic activity in ICR mouse assessed as pain threshold variation at 12.5 umol/kg, po administered as single dose measured after 120 mins by tail flick test relative to control; format: functional
Mus musculus [17] = experiment: Analgesic activity in ICR mouse assessed as pain threshold variation at 12.5 umol/kg, po administered as single dose measured after 150 mins by tail flick test relative to control; format: functional
Mus musculus [18] = experiment: Analgesic activity in ICR mouse assessed as pain threshold variation at 12.5 umol/kg, po administered as single dose measured after 180 mins by tail flick test relative to control; format: functional
Mus musculus [19] = experiment: Analgesic activity in ICR mouse assessed as pain threshold variation at 6.25 umol/kg, po administered as single dose measured after 30 mins by tail flick test relative to control; format: functional

| Compound | Activity (Mus musculus [1]) | Activity (Mus musculus [2]) | Activity (Mus musculus [3]) | Activity (Mus musculus [4]) | Activity (Mus musculus [5]) | Activity (Mus musculus [6]) | Activity (Mus musculus [7]) | Activity (Mus musculus [8]) | Activity (Mus musculus [9]) | Activity (Mus musculus [10]) | Activity (Mus musculus [11]) | Activity (Mus musculus [12]) | Activity (Mus musculus [13]) | Activity (Mus musculus [14]) | Activity (Mus musculus [15]) | Activity (Mus musculus [16]) | Activity (Mus musculus [17]) | Activity (Mus musculus [18]) | Activity (Mus musculus [19]) |
| --- | --- | --- | --- | --- | --- | --- | --- | --- | --- | --- | --- | --- | --- | --- | --- | --- | --- | --- | --- |
| NCCCC[C@H](NC(=O)CN(c1nc(Cl)nc2[nH]cnc12)C1CC1)C(=O)OCc1ccccc1 | 14.83% | 11.3% | 9.01% | 4.87% | 3.95% | Dose-dependent effect | 26.13% | 41.16% | 35.27% | 16.79% | 9.88% | 2.24% | 18.5% | 29.98% | 25.42% | 11.35% | 9.91% | 3.72% | 9.19% |
| N=C(N)NCCC[C@H](NC(=O)CN(c1nc(Cl)nc2[nH]cnc12)C1CC1)C(=O)O | 17.53% | 12.08% | 9.52% | 5.09% | 2.15% | Dose-dependent effect | 45.41% | 50.97% | 27.59% | 17.03% | 7.19% | 5.19% | 22.24% | 39.76% | 18.43% | 10.28% | 6.93% | 5.24% | 8.9% |
| CC(C)C[C@H](NC(=O)CN(c1nc(Cl)nc2[nH]cnc12)C1CC1)C(=O)O | 10.66% | 16.17% | 9.44% | 5.56% | 2.8% | Dose-dependent effect | 23.4% | 36.37% | 26.97% | 18.74% | 9.13% | 3.63% | 15.99% | 17.3% | 20.93% | 13.32% | 7.77% | 5.5% | 8.01% |
| O=C(CN(c1ncnc2c1ncn2C1CCCCO1)C1CC1)N[C@@H](Cc1c[nH]c2ccccc12)C(=O)OCc1ccccc1 (stereo not given in full) | – | – | – | – | – | – | 43.53% | 51.9% | 38.93% | 22.58% | 11.45% | 5.15% | – | – | – | – | – | – | – |
| C[C@H](NC(=O)CN(c1ncnc2c1ncn2C1CCCCO1)C1CC1)C(=O)OCc1ccccc1 (stereo not given in full) | – | – | – | – | – | – | 55.91% | 53% | 32.06% | 25.3% | 6.01% | 5.96% | – | – | – | – | – | – | – |
| CSCC[C@H](NC(=O)CN(c1nc(Cl)nc2[nH]cnc12)C1CC1)C(=O)O | – | – | – | – | – | – | 20.37% | 22.75% | 13.99% | 5.67% | 4.14% | 3.4% | – | – | – | – | – | – | – |
| CC[C@H](C)[C@H](NC(=O)CN(c1nc(Cl)nc2[nH]cnc12)C1CC1)C(=O)O | – | – | – | – | – | – | 30.34% | 35.97% | 27.39% | 21.42% | 6.71% | 3.9% | – | – | – | – | – | – | – |
| N=C(N)NCCC[C@H](NC(=O)CN(c1nc(Cl)nc2[nH]cnc12)C1CC1)C(=O)OCc1ccccc1 | – | – | – | – | – | – | 23.19% | 30.57% | 30.44% | 10.24% | 6.12% | 1.78% | – | – | – | – | – | – | – |
| O=C(CN(c1ncnc2c1ncn2C1CCCCO1)C1CC1)N[C@@H](CCC(=O)OCc1ccccc1)C(=O)OCc1ccccc1 (stereo not given in full) | – | – | – | – | – | – | 32.61% | 34.74% | 25.2% | 20.71% | 14.14% | 10.93% | – | – | – | – | – | – | – |
| O=C(O)C[C@H](NC(=O)CN(c1nc(Cl)nc2[nH]cnc12)C1CC1)C(=O)O | – | – | – | – | – | – | 19.85% | 38.9% | 25.14% | 21.95% | 11.63% | 3.17% | – | – | – | – | – | – | – |
| CC(C)(C)OC(=O)NCCCC[C@H](NC(=O)CN(c1ncnc2c1ncn2C1CCCCO1)C1CC1)C(=O)OCc1ccccc1 (stereo not given in full) | – | – | – | – | – | – | 18.33% | 32.66% | 32.85% | 28.39% | 17.2% | 10.06% | – | – | – | – | – | – | – |
| NC(=O)C[C@H](NC(=O)CN(c1ncnc2c1ncn2C1CCCCO1)C1CC1)C(=O)OCc1ccccc1 (stereo not given in full) | – | – | – | – | – | – | 34.53% | 30.54% | 34.95% | 29.15% | 21.71% | 15.45% | – | – | – | – | – | – | – |
| C[C@H](NC(=O)CN(c1nc(Cl)nc2[nH]cnc12)C1CC1)C(=O)OCc1ccccc1 | – | – | – | – | – | – | 41.23% | 64.29% | 44.16% | 36.13% | 23% | 15.09% | – | – | – | – | – | – | – |
| O=C(CN(c1nc(Cl)nc2[nH]cnc12)C1CC1)N[C@@H](CO)C(=O)OCc1ccccc1 | – | – | – | – | – | – | 31.88% | 34.17% | 34.53% | 34.5% | 27.88% | 11.5% | – | – | – | – | – | – | – |
| O=C(O)CNC(=O)CN(c1nc(Cl)nc2[nH]cnc12)C1CC1 | – | – | – | – | – | – | 32.16% | 38.89% | 32.31% | 19.81% | 9.08% | 8.11% | – | – | – | – | – | – | – |
| O=C(CN(c1ncnc2c1ncn2C1CCCCO1)C1CC1)N[C@@H](Cc1ccc(O)cc1)C(=O)OCc1ccccc1 (stereo not given in full) | – | – | – | – | – | – | 20.53% | 35.82% | 36.45% | 17.44% | 8.71% | 5.02% | – | – | – | – | – | – | – |
| NC(=O)C[C@H](NC(=O)CN(c1nc(Cl)nc2[nH]cnc12)C1CC1)C(=O)O | – | – | – | – | – | – | 29.73% | 43.14% | 20.06% | 17.03% | 7.51% | 5.66% | – | – | – | – | – | – | – |
| O=C(CN(c1ncnc2c1ncn2C1CCCCO1)C1CC1)N[C@@H](Cc1ccccc1)C(=O)OCc1ccccc1 (stereo not given in full) | – | – | – | – | – | – | 39.2% | 45.54% | 37.73% | 26.29% | 3.49% | 1.79% | – | – | – | – | – | – | – |
| O=C(CN(c1ncnc2c1ncn2C1CCCCO1)C1CC1)N[C@@H](Cc1cnc[nH]1)C(=O)OCc1ccccc1 (stereo not given in full) | – | – | – | – | – | – | 24.98% | 36.43% | 14.45% | 10.16% | 5.31% | 4.38% | – | – | – | – | – | – | – |
| O=C(CN(c1nc(Cl)nc2[nH]cnc12)C1CC1)N[C@@H](Cc1c[nH]c2ccccc12)C(=O)OCc1ccccc1 | – | – | – | – | – | – | 30.67% | 42.24% | 40.71% | 21.51% | 10.71% | 7.78% | – | – | – | – | – | – | – |
| O=C(CN(c1nc(Cl)nc2[nH]cnc12)C1CC1)N[C@@H](Cc1ccc(O)cc1)C(=O)OCc1ccccc1 | – | – | – | – | – | – | 22.6% | 22% | 15.02% | 13.65% | 9.38% | 4.33% | – | – | – | – | – | – | – |
